Data reported in paper PMC6395926, “Mass Balance and Drug Interaction Potential of Intravenous Eravacycline Administered to Healthy Subjects” (Antimicrobial Agents and Chemotherapy, 2019).
Like-named read-outs stand apart in the source and are kept apart here.

Columns and labels:
[1] = parameters: method as in PMID 30150464; conditions: healthy volunteers, i.v. 1 mg/kg q12h for 10 days; cited from earlier work
[2] = Drug interaction study with itraconazole (CYP3A4 inhibitor): plasma PK of i.v. eravacycline and metabolites; format: in vivo, human; conditions: for AUC(0-t) / Cmax / clearance / half-life / Vd: human, plasma, iv, mean ± SD, n = 10; for Vd: read-out: Vss
Procedure: Two single-center, open-label studies were conducted to evaluate the effects of itraconazole (CYP3A4 inhibitor) and rifampin (CYP3A4 inducer) on the pharmacokinetics of i.v. eravacycline in healthy subjects.
(ii) Study design. Each study included a 28-day screening period, a 13-day treatment period (19 days for rifampin), and an end-of-study visit 2 weeks after the last dose of study drug. Eravacycline was administered in the morning as a 1-mg/kg i.v. infusion over 60 min on day 1 with a second dose on day 10 (itraconazole study) or day 17 (rifampin study). For the itraconazole study, 200 mg oral itraconazole was administered q12h on day 8 and q24h on days 9 and 10. For the rifampin study, 600 mg oral rifampin was administered q24h from day 8 to day 17. All study treatments were administered in the fasting state.
(iii) Study assessments. Blood samples for PK analysis of eravacycline and its metabolites, TP-498, TP-6208, and TP-034, were collected predose and 1, 2, 4, 6, 8, 12, 24, 36, and 48 h after the start of the i.v. infusion on day 1 and day 10 (itraconazole) or day 1 and day 17 (rifampin). Safety assessments included AEs, clinical laboratory safety tests (hematology, serum chemistry, electrolytes, coagulation, urinalysis, and lipid profile), vital signs, physical examinations, and 12-lead ECG.
Concentrations of eravacycline, TP-498, and TP-6208 in human plasma samples were measured by LC-tandem MS after solid-phase extraction over a calibration range of 5.00 to 500 ng/ml. The LLOQ for eravacycline, TP-498, TP-6208, and TP-034 in human plasma was 5.00 ng/ml. Samples with eravacycline initial concentrations above the upper limit of quantification (500 ng/ml) were diluted appropriately with control blank human plasma and reanalyzed. There was no interference seen when human plasma was fortified with eravacycline, TP-498, TP-6208, and either itraconazole or rifampin.
(iv) Pharmacokinetic analysis. PK assessments included Cmax, Tmax, AUC0–24, AUC0–t, t1/2, CL, and Vss. Actual sampling time was used for PK calculations. PK parameters were derived by noncompartmental analysis. Descriptive statistics were calculated for analyte concentrations at each evaluation time point and for all quantitative PK parameters of eravacycline, TP-498, TP-6208, and TP-034 for day 1 and day 10 (day 17 for rifampin). The effect of itraconazole or rifampin on the PK profile of i.v. eravacycline was evaluated by comparing log-transformed PK parameters (Cmax and AUC0–t) associated with the administration of study drug on day 1 and day 10 (itraconazole) or day 1 and day 17 (rifampin) using paired t tests. The ratio and 90% confidence interval (CI) were presented after back transformation to the original scale. Pharmacokinetic variables were calculated using WinNonlin Professional.

[3] = eravacycline plus itraconazole (day 10) vs eravacycline alone (day 1), 1 mg/kg i.v.
[4] = day 1, eravacycline 1 mg/kg i.v. alone
[5] = day 10, eravacycline 1 mg/kg i.v. with itraconazole

Question: Which results are given for `CN(C)[C@@H]1C(O)=C(C(N)=O)C(=O)[C@@]2(O)C(O)=C3C(=O)c4c(O)c(NC(=O)CN5CCCC5)cc(F)c4C[C@H]3C[C@@H]12` [eravacycline]?
Answer: AUC0–12 [1]: 6,309 ng·h/ml; clearance (CL) [1]: 2.67 mL/min/kg; mean peak plasma concentration (Cmax) [1]: 1,825 ng/ml; volume of distribution at steady state (Vss) [1]: 4.0 L/kg; Ratio of geometric mean AUC0–t, day 10/day 1 [2, 3]: 134.3%; Ratio of geometric mean Cmax, day 10/day 1 [2, 3]: 107.9%; decrease of CL with itraconazole ([2]; eravacycline plus itraconazole day 10 vs day 1): about 30%; AUC(0-t) [2, 4]: 4320 ng·h/mL; Cmax [2, 4]: 1100 ng/mL; clearance [2, 4]: 3.79 ± 1.03 mL/min/kg; half-life [2, 4]: 14 ± 2.4 h; Vd [2, 4]: 3.42 ± 0.73 L/kg; AUC(0-t) [2, 5]: 5700 ng·h/mL; Cmax [2, 5]: 1160 ng/mL; clearance [2, 5]: 2.57 ± 0.5 mL/min/kg; half-life [2, 5]: 19 ± 3.6 h; Vd [2, 5]: 3.37 ± 0.56 L/kg
